In patent publication US20060172993A1 (priority 2002, published 2006):

Tested on: Patients diagnosed with Alzheimer's Disease
Assay: ADCS/ADL scale (Activities of Daily Living)
Format: in vivo, human
Source text: Subjects in the Placebo group received 21 weeks (5 months) of placebo medication.
The ADCS/ADL scale is a 23-item informant-based assessment scale measuring widely applicable daily activities appropriate for patients in the mild to moderate category of Alzheimer's Disease. The 23 items were selected for measurement from the larger set of 45 items studied by Galasko et al (Alzheimer Disease and Associated Disorders, Vol 11, Suppl. 2, 1997). These individual items were scored from 0-3 to […], depending on the question, with a possible total score of 78. A higher score indicated a higher functioning patient.
The items and scoring were as follows: • Eating (0-3) • Walking (0-3) • Toileting (0-3) • Bathing (0-3) • Grooming (0-3) • Dressing • selection of clothes (0-3) • physical performance (0-4) • Telephone (0-5) • Television (0-3) • Conversation (0-3) • Dishes (0-3) • Managing personal belongings (0-3) • Obtaining beverages (0-3) • Making a meal or snack (0-4) • Disposal of garbage (0-3) • Travel outside home (0-4) • Shopping (0-4) • Keeping appointments (0-3) • Ability to be left alone (0-3) • Current events (0-3) • Reading (0-2) • Writing (0-3) • Hobbies (0-3) • Household appliances (0-4)
An additional secondary indication captures overall changes in Activities of daily Living (ADL) performances as measured by the Alzheimer's Disease Cooperative Study Activities of Daily Living (ACDS/ADL) scale. As mentioned above this scale is comprised of 23 items that have been tested and validated in patients with mild to moderately severe Alzheimer's disease.

COc1ccc2c3c1O[C@H]1C[C@@H](O)C=C[C@@]31CCN(C)C2 [GAL, galantamine]
Change in Total ADL score from baseline at Month 5, Mean (8 mg/day, LOCF): −3.2 | Change in Total ADL score from baseline at Month 5, Mean (8 mg/day, observed case): −3.1 | Change in Total ADL score from baseline at Month 5, Mean (16 mg/day, LOCF): −0.7 | Change in Total ADL score from baseline at Month 5, Mean (16 mg/day, observed case): −0.5 | Change in Total ADL score from baseline at Month 5, Mean (24 mg/day, LOCF): −1.5 | Change in Total ADL score from baseline at Month 5, Mean (24 mg/day, observed case): −1.6
